In patent publication US20230141887A1, “CRYSTAL FORM OF DIAZASPIROPYRAN COMPOUND” (MEDSHINE DISCOVERY INC., priority 2020, published 2023):
Substitutions are numbered along the chain they refer to.

Columns and labels:
[1] = biological target: T1, FLT3(N841I) (Homo sapiens, UniProt P36888, N841I); format: binding
T1 sequence (P36888 27-993 N841I): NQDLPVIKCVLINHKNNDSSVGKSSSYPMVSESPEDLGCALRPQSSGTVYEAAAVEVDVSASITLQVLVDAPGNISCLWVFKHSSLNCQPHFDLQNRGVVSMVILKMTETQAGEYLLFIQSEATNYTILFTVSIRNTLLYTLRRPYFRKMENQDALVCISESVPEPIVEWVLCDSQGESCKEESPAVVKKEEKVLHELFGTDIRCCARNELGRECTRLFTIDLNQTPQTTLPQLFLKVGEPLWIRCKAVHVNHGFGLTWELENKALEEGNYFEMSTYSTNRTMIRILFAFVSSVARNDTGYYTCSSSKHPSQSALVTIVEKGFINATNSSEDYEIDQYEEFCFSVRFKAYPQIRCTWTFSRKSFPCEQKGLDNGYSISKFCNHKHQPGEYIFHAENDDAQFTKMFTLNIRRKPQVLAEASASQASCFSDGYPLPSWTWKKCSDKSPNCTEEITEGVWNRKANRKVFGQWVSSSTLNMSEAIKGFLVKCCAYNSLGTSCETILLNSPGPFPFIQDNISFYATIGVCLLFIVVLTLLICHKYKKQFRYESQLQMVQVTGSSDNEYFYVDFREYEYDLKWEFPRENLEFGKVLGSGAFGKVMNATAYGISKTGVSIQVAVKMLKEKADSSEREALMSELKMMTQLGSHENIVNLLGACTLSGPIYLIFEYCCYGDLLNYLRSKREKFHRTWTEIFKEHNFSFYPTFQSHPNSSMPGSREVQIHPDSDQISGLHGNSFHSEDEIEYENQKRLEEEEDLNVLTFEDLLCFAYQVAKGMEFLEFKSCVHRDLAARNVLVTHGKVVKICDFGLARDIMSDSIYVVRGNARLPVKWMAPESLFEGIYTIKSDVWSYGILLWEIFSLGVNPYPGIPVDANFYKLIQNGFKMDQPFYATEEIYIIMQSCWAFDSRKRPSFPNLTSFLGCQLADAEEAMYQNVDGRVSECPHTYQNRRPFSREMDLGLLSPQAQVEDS
Description: (§1) The assay was carried out using KINOMEscan™ technology. The assay compounds were stored in 100% DMSO. The assay was carried out by means of 3-fold dilution and 11-point fitting. All compounds used for Kd determination were dispersed by ultrasound, then directly diluted and tested. All reactions were carried out in a 384-well polypropylene plate. Each portion has a final volume of 0.02 ml. The plate was incubated with shaking at room temperature for 1 hour, and then processed. The kinase concentration in the eluent was finally determined by qPCR method. Kd was obtained by fitting.

[2] = biological target: T2, FLT3(D835V) (Homo sapiens, UniProt P36888, D835V); format: binding
T2 sequence (P36888 27-993 D835V): T1 sequence (P36888 27-993 N841I) with D809V, I815N
Description: as §1

CCc1nc(C(N)=O)c(Nc2ccc(N3CCC4(CCN(C)CC4)CC3)c(C)c2)nc1NC1CCOCC1.O=C(O)C(F)(F)F
Kd [1]: 5.4 nM
Kd [2]: 0.23 nM
